Assay results: ChEMBL document CHEMBL1129832, “Rational design, synthesis, and serine protease inhibitory activity of a novel P1-argininal derivative featuring a conformationally constrained P2P3 bicyclic lactam moiety” (Bioorg Med Chem Lett, 1997); call rule not given here

Columns and labels:
Plasminogen [1] = biological target: T1, Plasminogen (Homo sapiens, UniProt P00747)
Coagulation factor X = Coagulation factor X (Homo sapiens, UniProt P00742)
Description: In vitro inhibitory concentration required to inhibit Coagulation factor X by 50%

[2] = biological target: Tissue-type plasminogen activator (Homo sapiens, UniProt P00750); assay: In vitro inhibitory concentration required to inhibit tissue plasminogen activator cleavage of the chromogenic substrate by 50%; Inactive
Chain of Tissue-type plasminogen activator (P00750 whole entry): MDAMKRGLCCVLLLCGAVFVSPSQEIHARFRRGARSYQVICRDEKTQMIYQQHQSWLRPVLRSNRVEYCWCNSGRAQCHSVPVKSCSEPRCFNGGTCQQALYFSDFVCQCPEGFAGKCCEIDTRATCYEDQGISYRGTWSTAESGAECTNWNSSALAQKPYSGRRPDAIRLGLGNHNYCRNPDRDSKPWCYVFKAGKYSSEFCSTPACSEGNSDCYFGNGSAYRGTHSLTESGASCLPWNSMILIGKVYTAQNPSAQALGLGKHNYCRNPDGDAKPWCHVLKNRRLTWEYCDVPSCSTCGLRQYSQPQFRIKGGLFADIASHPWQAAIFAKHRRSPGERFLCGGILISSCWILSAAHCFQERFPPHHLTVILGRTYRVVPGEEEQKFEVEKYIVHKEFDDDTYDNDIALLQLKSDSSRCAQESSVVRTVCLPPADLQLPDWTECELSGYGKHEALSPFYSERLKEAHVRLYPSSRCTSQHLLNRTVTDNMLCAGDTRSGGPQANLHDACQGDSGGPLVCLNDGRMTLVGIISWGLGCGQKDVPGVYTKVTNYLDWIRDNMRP

Serine protease 1 = Serine protease 1 (Homo sapiens, UniProt P07477)
Chain of Serine protease 1 (P07477 whole entry): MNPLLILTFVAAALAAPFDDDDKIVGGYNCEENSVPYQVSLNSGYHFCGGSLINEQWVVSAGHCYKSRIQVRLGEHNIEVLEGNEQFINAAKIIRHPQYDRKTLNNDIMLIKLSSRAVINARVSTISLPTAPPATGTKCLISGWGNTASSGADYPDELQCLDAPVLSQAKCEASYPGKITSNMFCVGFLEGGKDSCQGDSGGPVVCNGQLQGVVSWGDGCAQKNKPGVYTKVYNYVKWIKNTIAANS

Plasminogen [3] = biological target: T1, Plasminogen; remark: listed apart in the source
Prothrombin = Prothrombin (Homo sapiens, UniProt P00734)

Chain of Coagulation factor X (P00742 41-179 limits assumed): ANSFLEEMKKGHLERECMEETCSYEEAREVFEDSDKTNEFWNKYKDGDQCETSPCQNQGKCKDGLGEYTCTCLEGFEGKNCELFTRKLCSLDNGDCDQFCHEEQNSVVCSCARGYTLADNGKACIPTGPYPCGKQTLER
Chain of Coagulation factor X (P00742 235-488 limits assumed): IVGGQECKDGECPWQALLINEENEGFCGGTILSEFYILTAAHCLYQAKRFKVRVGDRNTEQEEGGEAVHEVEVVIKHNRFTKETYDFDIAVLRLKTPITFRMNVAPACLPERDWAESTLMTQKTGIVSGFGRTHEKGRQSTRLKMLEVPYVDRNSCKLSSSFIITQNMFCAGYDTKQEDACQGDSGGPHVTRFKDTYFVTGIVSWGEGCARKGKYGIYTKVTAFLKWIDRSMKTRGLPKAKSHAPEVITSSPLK
T1 sequence (P00747 97-580 limits assumed): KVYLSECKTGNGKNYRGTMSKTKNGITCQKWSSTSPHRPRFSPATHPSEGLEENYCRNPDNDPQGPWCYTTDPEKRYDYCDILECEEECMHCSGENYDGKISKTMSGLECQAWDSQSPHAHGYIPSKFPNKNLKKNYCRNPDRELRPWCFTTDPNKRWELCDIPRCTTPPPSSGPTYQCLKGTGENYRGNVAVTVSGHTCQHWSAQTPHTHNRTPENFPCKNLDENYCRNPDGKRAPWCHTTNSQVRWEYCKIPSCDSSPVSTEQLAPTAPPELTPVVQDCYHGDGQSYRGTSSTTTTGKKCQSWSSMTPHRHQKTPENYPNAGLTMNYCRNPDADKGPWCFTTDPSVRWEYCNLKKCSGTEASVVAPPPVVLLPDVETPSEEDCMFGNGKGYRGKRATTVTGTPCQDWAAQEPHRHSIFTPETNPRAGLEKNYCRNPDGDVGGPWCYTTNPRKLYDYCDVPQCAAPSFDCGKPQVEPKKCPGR
T1 sequence (P00747 581-810 limits assumed): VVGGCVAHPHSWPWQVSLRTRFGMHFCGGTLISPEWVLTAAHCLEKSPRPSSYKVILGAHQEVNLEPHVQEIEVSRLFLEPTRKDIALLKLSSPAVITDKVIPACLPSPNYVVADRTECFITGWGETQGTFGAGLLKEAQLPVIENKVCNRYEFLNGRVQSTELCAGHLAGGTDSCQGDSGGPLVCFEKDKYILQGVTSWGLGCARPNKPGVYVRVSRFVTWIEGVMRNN

| Structure (SMILES) | IC50 (Plasminogen [1]) | IC50 (Coagulation factor X) [nM] | IC50 [2] | IC50 (Serine protease 1) [nM] | IC50 (Plasminogen [3]) [nM] | IC50 (Prothrombin) [nM] |
| --- | --- | --- | --- | --- | --- | --- |
| N=C(N)N1CCC[C@H](NC(=O)CN2CCC[C@H](NS(=O)(=O)Cc3ccccc3)C2=O)C1O (stereo partly specified) | Not Active | > 2500 | Not Active | – | – | – |
| CCCC(CCC)C(=O)N[C@@H](CC(=O)OC)C(=O)N1CCCC1C(=O)N[C@H]1CCCN(C(=N)N)C1O (stereo partly specified) | – | – | Not Active | 1.36 | 315 | 1.1 |
| COC(=O)C[C@H](NS(=O)(=O)Cc1ccccc1)C(=O)N1CCCC1C(=O)N[C@H]1CCCN(C(=N)N)C1O (stereo partly specified) | – | 29.7 | – | 2.58 | 14.8 | 5.01 |
| N=C(N)N1CCC[C@H](NC(=O)C2CS[C@H]3CC[C@H](NS(=O)(=O)Cc4ccccc4)C(=O)N23)C1O (stereo partly specified) | – | > 2500 | Not Active | 11.6 | 923 | 16.4 |
